Measured values as given in US8304419B2, “Chemical compounds” (priority 2007, dated 2012).
Counter-ions that a name gives are not always drawn. Like-named read-outs stand apart in the source and are kept apart here.

System: HIV wild type (WTRVA)
Test: HeLa cell assay, wild type virus (WTRVA)
Assay type: cell-based, HIV-1
Set-up: scale not given here
[1] = Human immunodeficiency virus 1, HeLa, HeLa-CD4-LTR-β-gal cells, wild type virus, read-out: WTRVA activity level
[2] = Human immunodeficiency virus 1, HeLa, HeLa cell assay, read-out: IC50 against WTRVA

Row | Compound | IC50 [1] [µM] | IC50 [2] [µM] | further results
1 | CC(=O)c1ccc2[nH]c(C(=O)NCc3ccc(Cl)c(Oc4cc(Cl)cc(C#N)c4)c3F)cc2c1 [Example 80, 5-acetyl-N-({4-chloro-3-[(3-chloro-5-cyanophenyl)oxy]-2-fluorophenyl}methyl)-1H-indole-2-carboxamide trifluoroacetate] | < 0.01 | – | –
2 | N#Cc1cc(Cl)cc(Oc2c(Cl)ccc(CNC(=O)c3cn(C(c4ccccc4)(c4ccccc4)c4ccccc4)cn3)c2F)c1 [Example 83, N-({4-chloro-3-[(3-chloro-5-cyanophenyl)oxy]-2-fluorophenyl}methyl)-1-(triphenylmethyl)-1H-imidazole-4-carboxamide] | > 1 | – | –
3 | N#Cc1cc(Oc2c(Cl)ccc(CNC(=O)c3[nH]cnc3Cl)c2F)cc(C(F)F)c1 [Example 309, 4-chloro-N-[(4-chloro-3-{[3-cyano-5-(difluoromethyl)phenyl]oxy}-2-fluorophenyl)methyl]-1H-imidazole-5-carboxamide] | – | < 0.01 | –
4 | CC(O)CCOc1ccc2[nH]c(C(=O)NCc3ccc(Cl)c(Oc4cc(Cl)cc(C#N)c4)c3F)cc2c1 (stereo not shown) [Example 106, N-({4-chloro-3-[(3-chloro-5-cyanophenyl)oxy]-2-fluorophenyl}methyl)-5-[(3-hydroxybutyl)oxy]-1H-indole-2-carboxamide] | < 0.01 | – | –
5 | N#Cc1cc(Cl)cc(Oc2c(Cl)ccc(CNC(=O)c3cc4c5c(ccc4[nH]3)N(C(N)=O)CC5)c2F)c1 [Example 44, N^2-({4-chloro-3-[(3-chloro-5-cyanophenyl)oxy]-2-fluorophenyl}methyl)-7,8-dihydropyrrolo[3,2-e]indole-2,6(3H)-dicarboxamide] | < 0.01 | – | –
6 | CC(=O)NCc1ccc2cc(C(=O)NCc3ccc(Cl)c(Oc4cc(Cl)cc(C#N)c4)c3F)[nH]c2c1 [Example 74, 6-[(acetylamino)methyl]-N-({4-chloro-3-[(3-chloro-5-cyanophenyl)oxy]-2-fluorophenyl}methyl)-1H-indole-2-carboxamide trifluoroacetate] | < 0.01 | – | –
7 | CCc1ccc(CNC(=O)c2[nH]cnc2Cl)c(F)c1Oc1cc(Cl)cc(C#N)c1 [Example 250, 4-chloro-N-({3-[(3-chloro-5-cyanophenyl)oxy]-4-ethyl-2-fluorophenyl}methyl)-1H-imidazole-5-carboxamide] | – | < 0.01 | –
8 | N#Cc1cc(Cl)cc(Oc2c(Cl)ccc(CNC(=O)c3cc4cccc(N)c4[nH]3)c2F)c1 [Example 113, 7-amino-N-({4-chloro-3-[(3-chloro-5-cyanophenyl)oxy]-2-fluorophenyl}methyl)-1H-indole-2-carboxamide] | < 0.01 | – | –
9 | CCc1cc(C#N)cc(Oc2c(Cl)ccc(CNC(=O)c3[nH]cnc3Cl)c2F)c1 [Example 148, 4-chloro-N-({4-chloro-3-[(3-cyano-5-ethylphenyl)oxy]-2-fluorophenyl}methyl)-1H-imidazole-5-carboxamide] | – | < 0.01 | –
10 | N#Cc1cc(Cl)cc(Oc2c(Cl)ccc(CNC(=O)c3[nH]c4ccccc4c3Br)c2F)c1 [Example 54, 3-bromo-N-({4-chloro-3-[(3-chloro-5-cyanophenyl)oxy]-2-fluorophenyl}methyl)-1H-indole-2-carboxamide trifluoroacetate] | – | – | IC50 (HeLa-CD4-LTR-β-gal cells, wild type virus, trifluoroacetate, read-out: WTRVA activity level): < 0.01 µM
11 | C=CCc1cc(C#N)cc(Oc2c(Cl)ccc(Cn3cnc4nc[nH]c4c3=O)c2F)c1 [Example 373, 3-({6-chloro-2-fluoro-3-[(6-oxo-6,7-dihydro-1H-purin-1-yl)methyl]phenyl}oxy)-5-(2-propen-1-yl)benzonitrile] | – | < 0.01 | –
12 | N#Cc1cc(Cl)cc(Oc2c(Br)ccc(CNC(=O)c3[nH]c(CO)nc3Cl)c2F)c1 [Example 241, N-({4-bromo-3-[(3-chloro-5-cyanophenyl)oxy]-2-fluorophenyl}methyl)-4-chloro-2-(hydroxymethyl)-1H-imidazole-5-carboxamide] | – | < 0.01 | –
13 | Cc1cc(Br)cc2cc(C(=O)NCc3ccc(Cl)c(Oc4cc(Cl)cc(C#N)c4)c3F)[nH]c12 [Example 30, 5-bromo-N-({4-chloro-3-[(3-chloro-5-cyanophenyl)oxy]-2-fluorophenyl}methyl)-7-methyl-1H-indole-2-carboxamide] | 0.01 to 1 | – | –
14 | COc1ccc(C(=O)NCc2ccc(Cl)c(Oc3cc(Cl)cc(C#N)c3)c2)c(OC)c1 [Example 6, N-({4-chloro-3-[(3-chloro-5-cyanophenyl)oxy]phenyl}methyl)-2,4-bis(methyloxy)benzamide] | 0.01 to 1 | – | –
15 | Cc1nc(Cl)c(C(=O)NCc2ccc(Cl)c(Oc3cc(C#N)cc(C(F)F)c3)c2F)[nH]1 [Example 300, 4-chloro-N-[(4-chloro-3-{[3-cyano-5-(difluoromethyl)phenyl]oxy}-2-fluorophenyl)methyl]-2-methyl-1H-imidazole-5-carboxamide trifluoroacetate] | – | < 0.01 | –
16 | CCCc1nc(Cl)c(C(=O)NCc2ccc(Cl)c(Oc3cc(Cl)cc(C#N)c3)c2F)[nH]1 [Example 139, 4-chloro-N-({4-chloro-3-[(3-chloro-5-cyanophenyl)oxy]-2-fluorophenyl}methyl)-2-propyl-1H-imidazole-5-carboxamide] | < 0.01 | – | –
17 | N#Cc1cc(Cl)cc(Oc2c(Cl)ccc(CNC(=O)c3[nH]cnc3Br)c2F)c1 [Example 133, 4-bromo-N-({4-chloro-3-[(3-chloro-5-cyanophenyl)oxy]-2-fluorophenyl}methyl)-1H-imidazole-5-carboxamide trifluoroacetate] | < 0.01 | < 0.01 | –
18 | CN(C)CCOc1ccc2[nH]c(C(=O)NCc3ccc(Cl)c(Oc4cc(Cl)cc(C#N)c4)c3F)cc2c1 [Example 105, N-({4-chloro-3-[(3-chloro-5-cyanophenyl)oxy]-2-fluorophenyl}methyl)-5-{[2-(dimethylamino)ethyl]oxy}-1H-indole-2-carboxamide] | < 0.01 | – | –
19 | N#Cc1cc(Cl)cc(Oc2c(Cl)ccc(CNC(=O)c3cccnc3)c2F)c1 [Example 94, N-({4-chloro-3-[(3-chloro-5-cyanophenyl)oxy]-2-fluorophenyl}methyl)-3-pyridinecarboxamide trifluoroacetate] | 0.01 to 1 | – | –
20 | CN(Cc1ccc(Cl)c(Oc2cc(Cl)cc(C#N)c2)c1F)C(=O)c1ccc[nH]1 [Example 129, N-({4-chloro-3-[(3-chloro-5-cyanophenyl)oxy]-2-fluorophenyl}methyl)-N-methyl-1H-pyrrole-2-carboxamide] | < 0.01 | – | –
21 | N#Cc1cc(Cl)cc(Oc2c(Cl)ccc(CNC(=O)c3cc4cc(OCC[C@H](O)CO)ccc4[nH]3)c2F)c1 [Example 107, N-({4-chloro-3-[(3-chloro-5-cyanophenyl)oxy]-2-fluorophenyl}methyl)-5-{[(3S)-3,4-dihydroxybutyl]oxy}-1H-indole-2-carboxamide] | < 0.01 | – | –
22 | C=CCc1cc(C#N)cc(Oc2c(Cl)ccc(CNC(=O)c3[nH]c(C)nc3Cl)c2F)c1 [Example 248, 4-chloro-N-[(4-chloro-3-{[3-cyano-5-(2-propen-1-yl)phenyl]oxy}-2-fluorophenyl)methyl]-2-methyl-1H-imidazole-5-carboxamide trifluoroacetate] | – | < 0.01 | –
23 | CCCc1cc(C#N)cc(Oc2c(Cl)ccc(CNC(=O)c3[nH]cnc3Cl)c2F)c1 [Example 151, 4-chloro-N-({4-chloro-3-[(3-cyano-5-propylphenyl)oxy]-2-fluorophenyl}methyl)-1H-imidazole-5-carboxamide] | – | < 0.01 | –
24 | N#Cc1cc(Cl)cc(Oc2c(Cl)ccc(CNC(=O)c3cc4cc([N+](=O)[O-])ccc4[nH]3)c2F)c1 [Example 19, N-({4-chloro-3-[(3-chloro-5-cyanophenyl)oxy]-2-fluorophenyl}methyl)-5-nitro-1H-indole-2-carboxamide] | < 0.01 | – | –
